{
  "source": "paper PMC8819907",
  "about": "(Journal of Experimental & Clinical Cancer Research : CR, 2022)",
  "origin": "cited, not measured here",
  "key": {"[1]": {"test_system": "patients with advanced solid tumors", "set-up": "method as in ref 27 (a number printed in a supplementary file, which may have a reference list of its own: not looked up in the article's list)", "details": "cited from earlier work"}, "[2]": {"test_system": "recurrent low-grade serous carcinoma of the ovary or peritoneum", "set-up": "method as in ref 33,34 (a number printed in a supplementary file, which may have a reference list of its own: not looked up in the article's list)", "details": "8/52 patients; cited from earlier work"}, "[3]": {"test_system": "metastatic biliary tract cancers", "set-up": "method as in ref 33,34 (a number printed in a supplementary file, which may have a reference list of its own: not looked up in the article's list)", "details": "3/25 response evaluable patients; cited from earlier work"}, "[4]": {"details": "only detectable minor component in blood; cited from earlier work"}, "[5]": {"test_system": "KRAS-mutant NSCLC", "set-up": "method as in ref 24 (a number printed in a supplementary file, which may have a reference list of its own: not looked up in the article's list)", "details": "cited from earlier work"}, "[6]": {"set-up": "method as in PMID 32696585", "details": "cited from earlier work"}},
  "data": [
    {"compound": "Cn1ncc(Cl)c1-c1cc(C(=O)N[C@H](CN)Cc2ccc(F)c(F)c2)oc1Cl", "note": "[GSK2141795]", "values": [
      {"measurement": "RP2D for single agent", "setting": "[1]", "result": 75, "unit": "mg/day"}
    ]},
    {"compound": "Cn1cnc2c(F)c(Nc3ccc(Br)cc3Cl)c(C(=O)NOCCO)cc21", "note": "[selumetinib]", "values": [
      {"measurement": "overall response rate", "setting": "[2]", "result": 15, "unit": "%"},
      {"measurement": "overall response rate", "setting": "[3]", "result": 12, "unit": "%"}
    ]},
    {"compound": "Cc1c(=O)n(C)c(Nc2ccc(I)cc2F)c2c(=O)n(C3CC3)c(=O)n(-c3cccc(N)c3)c12", "note": "[M5]", "values": [
      {"measurement": "share of the blood radioactivity", "setting": "[4]", "result": "< 7", "unit": "%"}
    ]},
    {"compound": "CC(=O)O[C@@]12CO[C@@H]1C[C@H](O)[C@@]1(C)C(=O)[C@H](O)C3=C(C)[C@@H](OC(=O)[C@H](O)[C@@H](NC(=O)OC(C)(C)C)c4ccccc4)C[C@@](O)([C@@H](OC(=O)c4ccccc4)[C@H]21)C3(C)C", "note": "[docetaxel]", "values": [
      {"measurement": "median PFS", "setting": "[5]", "result": 11.4, "unit": "weeks"},
      {"measurement": "overall response rate (ORR)", "setting": "[5]", "result": 12, "unit": "%"}
    ]},
    {"compound": "O=C(c1ccc(F)c(F)c1Nc1ccc(I)cc1F)N1CC(O)([C@@H]2CCCCN2)C1", "note": "[cobimetinib]", "values": [
      {"measurement": "total AUC0−∞ lower, severe hepatic impairment vs normal hepatic function", "setting": "[6]", "result": "~30", "unit": "%"},
      {"measurement": "unbound AUC0−∞ higher, severe hepatic impairment vs normal hepatic function", "setting": "[6]", "result": "~2", "unit": "fold"}
    ]}
  ]
}
